Target: T1, soluble human BACE (Homo sapiens, UniProt P56817)
T1 construct: cells secreting human recombinant soluble BACE; made in house; concentrated conditioned medium, crude or purified
Assay: Inhibition of BACE: beta-secretase cleavage of synthetic biotinylated APP substrate, ELISA readout
Assay type: biochemical
Conditions: 3 μM substrate, 0.05M sodium acetate (pH 4.5), 2% DMSO, 1 hour at 37° C., ELISA absorbance at 450 nm
Description: The substrate and test compounds are added to 384 well polypropylene plates. The reaction is initiated by the addition of soluble BACE enzyme to a final volume of 12.5 μL per well. […] Concentrated conditioned media from cells secreting human recombinant soluble BACE was titrated to provide a source of BACE enzyme. The cell media can be used as either a crude BACE prep or BACE can be purified using any number of techniques, including immobilized BACE inhibitor purification columns. The assay mixture is incubated for 1 hour at 37° C., and the reaction is quenched by the addition of an equal volume of 0.1M Tris, pH 8. Half of the quenched mix is incubated on clear streptavidin coated 384 well polystyrene plates for 1 hour. […] The readout, following assay development with TMB substrate and quenching with 0.09M sulfuric acid, is absorbance at 450 nm.

T1 sequence (P56817 46-457 limits assumed): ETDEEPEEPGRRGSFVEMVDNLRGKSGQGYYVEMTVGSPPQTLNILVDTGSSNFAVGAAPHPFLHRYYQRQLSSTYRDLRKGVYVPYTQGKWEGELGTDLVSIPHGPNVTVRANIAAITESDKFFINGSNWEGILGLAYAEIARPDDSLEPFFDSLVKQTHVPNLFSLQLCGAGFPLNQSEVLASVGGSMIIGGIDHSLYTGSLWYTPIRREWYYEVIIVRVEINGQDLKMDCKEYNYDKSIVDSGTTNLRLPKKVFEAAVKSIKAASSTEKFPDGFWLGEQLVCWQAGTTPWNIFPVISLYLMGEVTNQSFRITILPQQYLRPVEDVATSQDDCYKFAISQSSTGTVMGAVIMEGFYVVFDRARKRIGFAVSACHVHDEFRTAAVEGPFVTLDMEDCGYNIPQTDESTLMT

Compound	IC50
Cc1ccncc1-c1cccc(CN2CC[C@]3(CNS(=O)(=O)N3c3cccc(F)c3)C[C@@H]2C)c1 [Example 17, (5R,7S)-1-(3-fluorophenyl)-7-methyl-8-[3-(4-methylpyridin-3-yl)benzyl]-2-thia-1,3,8-triazaspiro[4.5]decane 2,2-dioxide]	1.51 µM
CC(C)Oc1cccc(CN2CC[C@]3(CNS(=O)(=O)N3c3cccc(F)c3)C[C@@H]2C)n1 [Example 83, (5R,7S)-1-(3-fluorophenyl)-8-[(6-isopropoxypyridin-2-yl)methyl]-7-methyl-2-thia-1,3,8-triazaspiro[4.5]decane 2,2-dioxide]	102 µM
